# Measurements as given in patent US20250375456A1, “AGENT FOR PREVENTING OR TREATING RESPIRATORY DISEASE” (Nippon Chemiphar Co., Ltd., priority 2021, published 2025).
# Tests used:
# Assay type in all cases: in vivo, guinea pig
# [1] = Measurement of weights in cigarette smoke-exposed model; conditions: Day 1 to Day 26; Compound A 3, 10, 30 mg/kg, gefapixant 10 mg/kg, oral once a day
# Description: (§1) Male Hartley guinea pigs (manufactured by Japan SLC, Inc., Slc: Hartley, SPF) were used in the test. The guinea pigs were purchased at 5 weeks old. The weights at the time of the purchase were about 300 to 350 g. After arrival, the guinea pigs were provided with an acclimation period of 9 days, including the day of receipt. During the above period, the clinical symptoms of the animals were observed once a day. In addition, on the last day of the acclimation period, the animals were weighed and the health status was measured. It was confirmed that there were no abnormal clinical signs or […] in any of the animals. Body weights on the last day of the acclimation (that is, at the beginning of exposure to cigarette smoke) were about 390 to 450 g.
# Experimental animals were prepared with reference to Non Patent Literature 2. Specifically, guinea pigs exposed to cigarette smoke using a smoking exposure system (INH06-CIG01A, INH06-CIG02, M.I.P.S. Inc.) were used in the experiment. […]
# The placebo and each drug were administered by forced oral administration into the stomach using a disposable syringe equipped with a gastric catheter. […] The actual amount of each drug administered to each guinea pig was calculated based on the most recent weight.
# The weights were measured with an electronic balance (MSA4202S, Sartorius Japan K.K.) before the research operation on Days 1, 8, 15, 22, and 26.
# [2] = tested on: cigarette smoke-exposed guinea pigs; assay: Number of cells in bronchoalveolar lavage fluid (BALF) in cigarette smoke-exposed model
# Description: as §1
# (§2) Experimental animals were prepared with reference to Non Patent Literature 2. Specifically, guinea pigs exposed to cigarette smoke using a smoking exposure system (INH06-CIG01A, INH06-CIG02, M.I.P.S. Inc.) were used in the experiment. Each guinea pig was placed in an exposure holder (one per cage), and the holder was secured in the exposure chamber. The animals were exposed to the smoke of 30 cigarette per day, 5 days a week, for 4 weeks, the smoke being generated by a mainstream smoke generator. In the fourth week, the exposure was for 4 days (smoking period was from […]). As for the cigarettes, Peace (no filter, tar: 28 mg, nicotine: 2.3 mg, Japan Tobacco Inc., Peace is a registered trademark of Japan Tobacco Inc.) was used.
# (§3) The placebo and each drug were administered by forced oral administration into the stomach using a disposable syringe equipped with a gastric catheter. As for the administration frequency, repetitive administration was performed once a day for 25 days from Day 1 to Day 25. The administration time was 1 hour (±5 minutes) before the cigarette smoke-exposure. The dose was 5 mL/kg. The actual amount of each drug administered to each guinea pig was calculated based on the most recent weight.
# The measurement was performed after the day after the last cigarette smoke exposure (Day 26).
# After sacrificing the guinea pigs by bleeding under anesthesia, bronchoalveolar lavage fluid (BALF) was collected according to the following operating procedure.
# (1) After ligating the left main bronchus with a thread, a cannula was inserted into the trachea and fixed.
# (2) 5 mL of saline was injected into the right lung through the cannula, and the lavage fluid was collected by gentle suctioning. BALF was collected by repeating this procedure twice (a total of 10 mL).
# The pellet was suspended in 1 mL of saline, and the number of WBCs were counted using an automated hematology analyzer with a BALF analysis area (XT-2000iV, Sysmex Corporation). The counting was performed by adjusting the smear preparation. The smear preparation was performed by centrifuging the cell suspension again and suspending the obtained pellet in 75% FBS (fetal bovine serum and saline). After drying, the smear preparation was Wright-Giemsa stained.
# The percentages of neutrophils, macrophages, eosinophil, and lymphocytes with respect to total WBCs were obtained, and the numbers of the cells per 1 μL were calculated.
# [3] = tested on: cigarette smoke-exposed guinea pigs; assay: Measurement of citric acid-induced cough reflex in cigarette smoke-exposed model; conditions: for mean number of cough reflexes: Day 20 or 21, 2 hours after administration, 0.1 mol/L citric acid, 15 minutes
# Description: as §1, §2, §3
# Measurements were performed 1 day or 2 days after the last cigarette smoke exposure during Week 3 (Day 20 or Day 21).
# The measurements were performed 2 hours after the administration of the placebo or various drugs.
# The guinea pigs were placed in the inhalation chamber of the respiratory function measurement system (Pulmos-I, M.I.P.S. Co.). Cough reflex was induced by inhaling citric acid (lot no. M8K7523, manufactured by NACALAI TESQUE, INC.) for 3 minutes from the front side of the chamber using an ultrasonic nebulizer. […] The presence or absence of a cough reflex was determined from the sound during the cough reflex, the movement of the animal, and the respiratory function. Before the measurement on the day of the administration, the animals were placed in the chamber for 15 minutes or longer to acclimatize to the experimental environment. Note that the respiratory function (respiratory rate (RR), tidal volume (TV), peak expiratory flow (PEF), and minute volume (MV)) was measured immediately before the citric acid inhalation. The respiratory function was measured by the body side sensor of the respiratory function measurement system.
# [4] = tested on: cigarette smoke-exposed guinea pigs; assay: Measurement of respiratory function (double flow plethysmography) in cigarette smoke-exposed model
# Description: as §1, §2
# Unless otherwise specified, various evaluations were performed on the day after the last cigarette smoke-exposure in the second week (Day 13) and the day after the last cigarette smoke-exposure (Day 26).
# The solvent of Compound A was used as the placebo of the control group.
# as §3
# Respiratory function in conscious guinea pigs was measured by double flow plethysmography using a respiratory function measurement system (Pulmos-I, M.I.P.S Inc.). The measurement parameters were specific airway resistance (sRaw), tidal volume (TV), respiratory rate (RR), minute volume (MV), and peak expiratory flow (PEF). The average value of the measurement values obtained with 100 breaths was considered as the measurement value for each measurement day.
# [5] = Day 26, high-dose group 30 mg/kg oral
# [6] = Day 26, low-dose group 3 mg/kg oral
# [7] = Day 26, medium-dose group 10 mg/kg oral
# [8] = Day 13, 10 mg/kg oral once a day
# [9] = Day 26, 10 mg/kg oral once a day
smiles,measurement,setting,value
"O=C1CC(=O)N(c2ccc(NC(=O)c3ccccc3I)cc2)c2ccc3ccccc3c2N1 [Compound B48, 5-[4-(2-iodobenzoylamino)phenyl]-1H-naphtho[1,2-b][1,4]diazepine-2,4(3H,5H)-dione]",weight changes compared to the control (placebo) group,[1],comparable
same,mean number of macrophages in BALF,"[2]; Day 26, 10 mg/kg oral",20.2 ×10^2 cells/μL
same,mean number of total WBCs in BALF,"[2]; Day 26, 10 mg/kg oral",30.1 ×10^2 cells/μL
same,"macrophages, dose dependence","[2]; Day 26, 3, 10, 30 mg/kg oral",smaller than that in the control (placebo) group in a dose-dependent manner
same,"neutrophils, dose dependence","[2]; Day 26, 3, 10, 30 mg/kg oral",tendency of decreasing in a dose-dependent manner
same,number of eosinophils compared to the control (placebo) group,"[2]; Day 26, 3, 10, 30 mg/kg oral",no significant difference
same,number of lymphocytes compared to the control (placebo) group,"[2]; Day 26, 3, 10, 30 mg/kg oral",no significant difference
same,"total WBCs, dose dependence","[2]; Day 26, 3, 10, 30 mg/kg oral",smaller than that in the control (placebo) group in a dose-dependent manner
same,mean number of eosinophils in BALF,[2]; [5],5.6 ×10^2 cells/μL
same,mean number of lymphocytes in BALF,[2]; [5],1.0 ×10^2 cells/μL
same,mean number of macrophages in BALF,[2]; [5],12.0 ×10^2 cells/μL
same,mean number of neutrophils in BALF,[2]; [5],2.3 ×10^2 cells/μL
same,mean number of total WBCs in BALF,[2]; [5],20.9 ×10^2 cells/μL
same,number of macrophages compared to the control (placebo) group,[2]; [5],significantly suppressed
same,total number of WBCs compared to the control (placebo) group,[2]; [5],significantly suppressed
same,mean number of eosinophils in BALF,[2]; [6],4.8 ×10^2 cells/μL
same,mean number of lymphocytes in BALF,[2]; [6],1.1 ×10^2 cells/μL
same,mean number of macrophages in BALF,[2]; [6],25.0 ×10^2 cells/μL
same,mean number of neutrophils in BALF,[2]; [6],3.1 ×10^2 cells/μL
same,mean number of total WBCs in BALF,[2]; [6],33.9 ×10^2 cells/μL
same,mean number of eosinophils in BALF,[2]; [7],6.1 ×10^2 cells/μL
same,mean number of lymphocytes in BALF,[2]; [7],1.2 ×10^2 cells/μL
same,mean number of neutrophils in BALF,[2]; [7],2.5 ×10^2 cells/μL
same,number of cough reflexes compared to the control (placebo) group,[3]; 10 mg/kg oral,no significant difference
same,mean number of cough reflexes,[3]; 10 mg/kg oral,6.9
same,number of cough reflexes compared to the control (placebo) group,[3]; high-dose group 30 mg/kg oral,tendency of suppressing the cough reflex
same,mean number of cough reflexes,[3]; high-dose group 30 mg/kg oral,3.6
same,number of cough reflexes compared to the control (placebo) group,[3]; low-dose group 3 mg/kg oral,no significant difference
same,mean number of cough reflexes,[3]; low-dose group 3 mg/kg oral,6.0
same,"minute volume (MV), dose dependence","[4]; 3, 10, 30 mg/kg oral",tendency of increasing in a dose-dependent manner
same,"peak expiratory flow (PEF), dose dependence","[4]; 3, 10, 30 mg/kg oral",tendency of increasing in a dose-dependent manner
same,"tidal volume (TV), dose dependence","[4]; 3, 10, 30 mg/kg oral",tendency of increasing in a dose-dependent manner
same,"sRaw, dose dependence","[4]; 3, 10, 30 mg/kg oral, Day 13 and Day 26",decreased in a dose-dependent manner
same,specific airway resistance (sRaw),[4]; [8],1.711 cmH2O·sec
same,specific airway resistance (sRaw),"[4]; Day 13, high-dose group 30 mg/kg oral once a day",1.556 cmH2O·sec
same,sRaw compared to the control (placebo) group,"[4]; Day 13, high-dose group 30 mg/kg oral, P<0.05",significant decrease
same,specific airway resistance (sRaw),"[4]; Day 13, low-dose group 3 mg/kg oral once a day",1.755 cmH2O·sec
same,specific airway resistance (sRaw),[4]; [9],2.017 cmH2O·sec
same,"respiratory rate (RR), dose dependence","[4]; Day 26, 3, 10, 30 mg/kg oral",tendency of decreasing in a dose-dependent manner
same,specific airway resistance (sRaw),"[4]; Day 26, high-dose group 30 mg/kg oral once a day",1.994 cmH2O·sec
same,specific airway resistance (sRaw),"[4]; Day 26, low-dose group 3 mg/kg oral once a day",2.105 cmH2O·sec
same,PEF compared to the control (placebo) group,"[4]; all Compound A groups (3, 10, 30 mg/kg)",higher
same,MV compared to the control (placebo) group,[4]; medium-dose group (10 mg/kg) and high-dose group (30 mg/kg),higher
"COc1cc(C(C)C)c(Oc2cnc(N)nc2N)cc1S(N)(=O)=O [Gefapixant, reference compound]",weight changes compared to the control (placebo) group,[1],comparable
same,effect on the changes in the number of cells in BALF,[2]; 10 mg/kg oral,did not have an effect
same,mean number of macrophages in BALF,"[2]; Day 26, 10 mg/kg oral",24.4 ×10^2 cells/μL
same,mean number of total WBCs in BALF,"[2]; Day 26, 10 mg/kg oral",40.0 ×10^2 cells/μL
same,number of macrophages compared to the control (placebo) group,"[2]; Day 26, 10 mg/kg oral",no significant different
same,total number of WBCs compared to the control (placebo) group,"[2]; Day 26, 10 mg/kg oral",no significant different
same,number of cough reflexes compared to the control (placebo) group,[3]; 10 mg/kg oral,no significant difference
same,mean number of cough reflexes,[3]; 10 mg/kg oral,4.5
same,effect on the respiratory function,[4]; 10 mg/kg oral,did not have a significant effect
same,specific airway resistance (sRaw),[4]; [8],1.675 cmH2O·sec
same,sRaw compared to the control (placebo) group,"[4]; Day 13 and Day 26, 10 mg/kg oral",no significant difference
same,specific airway resistance (sRaw),[4]; [9],2.066 cmH2O·sec
